Experimental data: US11884633B2, “Arylazole compound and pest control agent” (Nippon Soda Co., Ltd., priority 2015, dated 2024)

Key:
Mythimna separata = assay: Test Example 1: efficacy test on Mythimna separata (artificial diet); format: in vivo; conditions: 0.8 g artificial diet mixed with 1 μl emulsion (I) (5% active ingredient); second instar larvae; 25° C.; fifth day
Protocol: (§1) 5 parts of the compound of the present invention, 93.6 parts of dimethylformamide, and 1.4 parts of polyoxyethylene alkylaryl ether were mixed and dissolved to prepare an emulsion (I) with 5% the active ingredient.
(§2) The insecticidal rate and the control rate were calculated by the following Equation. Insecticidal rate (%)=(number of dead insects/number of test insects)×100 Control rate={1−(Nt)/(Nc)}×100
0.8 g of commercially available artificial diet (Insector LFS, manufactured by Nosan Corp.) and Emulsion (I) 1 μl were well mixed and 0.2 g per each treatment group was packed in a plastic test container (1.4 ml) to prepare test feed. Two Mythimna separata second instar larvae were inoculated into each treatment group and sealed with a plastic lid. The container was placed in a thermostatic chamber at 25° C., and the insecticidal rate and food intake were examined on the fifth day. The test was performed twice. Further, a test conducted under the same conditions except that the compound of the present invention was removed from the emulsion (I) was performed as a vehicle control group.

housefly = assay: Test Example 12: efficacy test on housefly; format: in vivo; conditions: 100 ppm on cubic sugar; female adults; 25° C.; 24 hours
Protocol: as §2
The compound of the present invention was diluted with acetone and added dropwise to 1 g of cubic sugar such that the concentration was set to be 100 ppm. The cubic sugar was placed in a plastic cup, and ten housefly female adults were released and capped. After storage at 25° C. and 24 hours passing from releasing, life and death determination was performed and the insecticidal rate was calculated. The test was performed twice.

Plutella xylostella = assay: Test Example 13: efficacy test on Plutella xylostella (soil immersion test); format: in vivo; conditions: 500 ppm, 10 ml soil irrigation of chingengsai seedlings; adults released after 7 days; counted 7 days after release
Protocol: as §1, §2
Nt: Number of parasites in spray treatment group
Nc: Number of parasites in untreated group
Emulsion (I) was diluted with water such that the concentration of the compound of the present invention was set to be 500 ppm to obtain a test solution. 10 ml of the test solution was irrigated to the stocker at chingengsai seedlings (seventh true leaf development stage) planted in a small pot and placed in a greenhouse at 25° C. for 7 days. Chingengsai seedlings were transferred into glass greenhouse and 300 adults of Plutella xylostella per 50 chingengsai were released in glass greenhouse. When 7 days passed after release, the number of surviving Plutella xylostella infested in Chingengsai seedlings was counted and the control rate was calculated. The test was performed twice.

Rhipicephalus microplus = assay: Test Example 17: contact effect test on Rhipicephalus microplus; format: in vivo; conditions: 100 ppm test solution; larvae; 24 hours after treatment
Protocol: as §2
A DMSO solution of the compound of the present invention was diluted with water to obtain a test solution at 100 ppm. This drug solution was dropped into a container containing 20 larvae of Rhipicephalus microplus and incubated in a thermostatic chamber at a temperature of 28° C. and a humidity of 80%. The larvae's life and death were determined 24 hours after the drug treatment. The test was performed twice.

Lucilia cuprina larvae = assay: Test Example 18: contact/feeding effect test on Lucilia cuprina larvae; format: in vivo; conditions: 1000 ppm in horse meat, 48 hours
Protocol: as §2
A DMSO solution of the compound of the present invention was mixed with horse meat to obtain a mixture of 1000 ppm. 20 Lucilia cuprina larvae were introduced into the test tube with the mixture. The mixture was incubated in a thermostatic chamber at a temperature of 28° C. and a humidity of 80%, and the larvae's life and death were determined 48 hours after the start of the test. The test was performed twice.

Aphis gossypii = assay: Test Example 11: efficacy test on Aphis gossypii (rooting treatment test); format: in vivo; conditions: 8 ppm; hydroponic culture of cucumber seedlings (root treatment); 6 days
Protocol: as §1, §2
The cucumber seedlings raised in a small pot were drawn out from the small pot, the soil adhering to the root portion was washed off with tap water, and the root portion was dipped in tap water and hydroponically cultivated. Cucumber seedlings were inoculated with Aphis gossypii […]. Emulsion (I) was diluted with water to obtain a diluted solution having a concentration of the compound of the present invention of 8 ppm. The tap water was replaced with the diluent and the hydroponic culture with the diluent was continued in a thermostatic chamber at a temperature of 25° C. and a humidity of 60%. When 6 days passed from the start of hydroponic culture with the diluent, life and death determination on Aphis gossypii was performed and the insecticidal rate was calculated. The test was performed twice.

Ornithodoros moubata = assay: Test Example 16: feeding effect test on Ornithodoros moubata; format: in vivo; conditions: 10 ppm in defibrin blood of sheep; tritonymphs; 14 days after blood sucking
Protocol: as §2
A DMSO solution of the compound of the present invention was mixed with the defibrin blood of sheep to obtain a mixed solution of 10 ppm. 2 ml of this mixed solution was placed in a container and capped with a parafilm membrane. In addition, 20 tritonymphs of Ornithodoros moubata were released and allowed to suck the blood through a parafilm membrane for about 30 minutes. The nymphs were transferred to a storage container and incubated in a thermostatic chamber at a temperature of 28° C. and a humidity of 80%, and the life and death and developmental stage were observed 14 days after blood sucking. The test was performed twice.

Aedes aegypti larvae = assay: Test Example 19: contact/feeding effect test on Aedes aegypti larvae; format: in vivo; conditions: final concentration 10 ppm; first instar larvae; 48 hours
Protocol: as §2
A DMSO solution of the compound of the present invention was diluted with water to obtain a diluted solution of 100 ppm. 10 Aedes aegypti first instar larvae were placed in each well of a 96-well microtiter plate together with breeding water, 1/10 of 100 ppm diluted solution were added and tested at a final concentration of 10 ppm. The mixture was incubated in a thermostatic chamber at a temperature of 28° C. and a humidity of 80%, and the larvae's life and death were determined for 48 hours after the drug treatment. The test was performed twice.

SMILES	feeding amount in comparison with the vehicle control group (Mythimna separata) [%]	other results
CCS(=O)(=O)c1cccnc1-n1ncc(C=C(Cl)C(F)(F)F)c1C (mixture of isomers) [10-3]	≤ 10	
CCS(=O)(=O)c1cc(C(F)(F)F)ccc1-c1ncc(/C=C/C(F)(F)F)n1C [1-10]	≤ 10	
CCS(=O)(=O)c1ccc(-n2ncnc2N)nc1-n1ncc(C=C(Cl)C(F)(F)C(F)(F)F)c1C [10-11]	≤ 10	
CCS(=O)(=O)c1ccc(-n2cncn2)nc1-n1ncc(C=C(Cl)C(F)(F)F)c1C (mixture of isomers) [10-4]	≤ 10	
CCS(=O)(=O)c1cc(C(F)(F)F)cnc1-n1ncc(C=C(Cl)C(F)(F)F)c1C (mixture of isomers) [10-2]	≤ 10	
CCS(=O)(=O)c1cc(C(F)(F)F)ccc1-c1ncc(C=C(Cl)C(F)(F)F)n1C [1-1, 5-(2-Chloro-3,3,3-trifluoroprop-1-en-1-yl)-2-(2-(ethylsulfonyl)-4-(trifluoromethyl)phenyl)-1-methyl-1H-imidazole]		insecticidal rate (housefly): ≥ 80%; control rate (Plutella xylostella): ≥ 80%; insecticidal rate (Rhipicephalus microplus): ≥ 90%; insecticidal rate (Lucilia cuprina larvae): ≥ 90%; insecticidal rate (Aphis gossypii): ≥ 80%; insecticidal rate (Ornithodoros moubata): ≥ 90%; insecticidal rate (Aedes aegypti larvae): ≥ 90%
CCS(=O)(=O)c1cccnc1-n1ncc(C=C(Cl)C(F)(F)C(F)(F)F)c1C [10-7]	≤ 10	
CCS(=O)(=O)c1ccc(-n2cncn2)nc1-n1ncc(C=C(Cl)C(F)(F)C(F)(F)F)c1C [10-5]	≤ 10	
CCS(=O)(=O)c1ccc(-n2cncn2)nc1-c1ncc(C=C(Cl)C(F)(F)C(F)(F)F)n1C [4-10]	≤ 10	
CCSc1cc(C(F)(F)F)ccc1-c1ncc(C(=O)N2CC(F)(F)C(F)(F)C2)n1C [15-3]		melting point: 155 to 156 °C
CCSc1cccnc1-n1ncc(C=C(Cl)C(F)(F)C(F)(F)F)c1C [10-6]	≤ 10	
CCS(=O)(=O)c1ccc(-n2cnc(N)n2)nc1-n1ncc(C=C(Cl)C(F)(F)C(F)(F)F)c1C [10-10]	≤ 10	
CCS(=O)(=O)c1cc(C(F)(F)F)ccc1-n1ncc(C(=O)On2nnc3ccccc32)c1C [15-2]		melting point: 211 to 215 °C
